Legend:
A549 = experiment: Antiproliferative activity against human A549 cells assessed as cell growth inhibition measured after 48 hrs by MTT assay; format: functional, cell-based; conditions: A549, 48 h
SK-OV-3 = experiment: Antiproliferative activity against human SKOV3 cells assessed as cell growth inhibition measured after 48 hrs by MTT assay; format: functional, cell-based; conditions: SK-OV-3, 48 h
HepG2 = experiment: Antiproliferative activity against human HepG2 cells assessed as cell growth inhibition measured after 48 hrs by MTT assay; format: functional, cell-based; conditions: HepG2, 48 h
SMMC-7721 = experiment: Antiproliferative activity against human SMMC7721 cells assessed as cell growth inhibition measured after 48 hrs by MTT assay; format: functional, cell-based; conditions: SMMC-7721, 48 h
L02 = experiment: Cytotoxicity against human HL7702 cells assessed as cell growth inhibition measured after 48 hrs by MTT assay; format: cell-based; conditions: L02, 48 h
T-24 = experiment: Antiproliferative activity against human T24 cells assessed as cell growth inhibition measured after 48 hrs by MTT assay; format: functional, cell-based; conditions: T-24, 48 h

IC50 (A549) [µM] | IC50 (SK-OV-3) [µM] | IC50 (HepG2) [µM] | IC50 (SMMC-7721) [µM] | SMILES | IC50 (L02) [µM] | IC50 (T-24) [µM]
44.1 | 58.8 | 51.3 | > 100 | O=C1c2cccc3cc([N+](=O)[O-])cc(c23)C(=O)N1Nc1nc2ccccc2s1 | 65.3 | 31.2
36.9 | 60.5 | 50.4 | 54.1 | O=C1c2cccc3cc([N+](=O)[O-])cc(c23)C(=O)N1c1nc2ccccc2[nH]1 | > 100 | 54.9
